Test results: patent US4874780A, “Anticancer compounds” (Norsk Hydro a.s., priority 1987, dated 1989)
Like-named read-outs stand apart in the source and are kept apart here.

How the values were obtained:
NHIK 3025 cells [1] = assay: Cell survival (colony formation) after 24 hr treatment; assay type: cell-based; details: Homo sapiens, NHIK3025, 24 h
Excerpt: (§1) Human cells of the established line NHIK 3025, originating from a cervical carcinoma in situ (Nordbye, K., and Oftebro, R. Exp. Cell Res., 58: 458, 1969), Oftebro, R., and Nordbye, K., Exp. Cell Res., 58: 459-460, 1969) were cultivated in Medium E2a (Puck, T.T. et al., J. Exp. Med., 106:145-165, 1957) supplemented with 20% human (prepared at the laboratory) and 10% horse serum (Grand Island Biological Co.). The cells are routinely grown as monolayers in tissue culture flasks.
(§2) The cells were kept in continuous exponential growth by frequent reculturing, i.e., every second and third day, and synchronized cell populations with a high degree of synchrony were obtained by repeated selection of mitotic cells (Pettersen, E. O. et al, Cell Tissue Kinet., 10: 511-522, 1977). During the synchronization procedure, the cells were kept in Medium E2a, and the whole experiment took place in a walk-in incubator at 37° C. Under growth conditions as used here, the NHIK 3025 cells have a medium cell-cycle time of ~18 hr, with medium G1, S1 and G2 durations of ~7, ~8, and ~2.5 hr, respectively.
For measurement of cell survival, appropriate numbers of cells were seeded in plastic Petri dishes (.phi.=5 cm). The number of cells seeded into each dish was adjusted such that the number of surviving cells would be approximately 150 per dish. While exponentially growing (asynchronous) cells were trypsinized before seeding, synchronized cells were seeded immediately after selection. After about 2 hr, the cells had attached to the bottom of the dishes, and the treatment was started by replacing the medium with medium containing the appropriate drug concentration. After the desired time of treatment, the drug-containing medium was removed, and fresh medium was added. The dishes were rinsed once with the same medium as was to be added on addition or removal of drug. After 10 to 12 days at 37° C. in a CO2 incubator, the cells were fixed in ethanol and stained with methylene blue before the colonies were counted.
The cytotoxic effect of benzaldehyde and of deuterobenzaldehyde-d1 was tested on asynchronous, exponentially growing NHIK 3025 cells by counting the number of cells able to form colonies after 24 hr treatment in Petri dishes. In Table 1 the results represent 2 different, independent experiments where the numbers give the mean fraction of surviving cells from 10 parallel dishes (± standard error).
Fraction of cells surviving 24 hr treatment with benzaldehyde or deuterobenzaldehyde - d1 in Petri dishes. (The values represent the mean±standard error from 10 different dishes.)

NHIK 3025 cells [2] = assay: Protein synthesis rate ((3H)valine incorporation); assay type: cell-based, human; details: 3.2 mM
Excerpt: as §1, §2
The rate of protein synthesis was calculated as described previously (Ronning, O. W. et al., J. Cell Physiol., 107: 47-57, 1981). Briefly, cellular protein was labeled to saturation during a 2-day preincubation with (^14 C)valine of constant specific radioactivity (0.5 Ci/mol) prior to the experiment. This was achieved by using a high concentration of valine so that the dilution of (^14 C)valine by intracellular valine and by proteolytically generated valine will be negligible (Ronning, O. W., et al. Exp. Cell Res. 123: 63-72, 1979), thus keeping the specific radioactivity at a constant level. The rate of protein synthesis was calculated from the incorporation of (3H)valine of constant specific activity. The incorporation measurements were related to the total of (^14 C) radioactivity in protein at the beginning of the respective measurement periods and expressed as the percentage per hr (Ronning, O. W. et al, J. Cell, Physiol. 107: 47-57, 1981).
[…] The last measurements were done to test the reversibility of the drugs. Drug concentration: 3.2 mM.

NHIK 3025 cells [3] = details: Pettersen et al. 1983, cited from earlier work
[4] = BG or BG-d1 metabolites in blood samples after iv injection (HPLC peak height); assay type: in vivo, male Wistar rats; details: rat
Protocol: (§3) Blood samples were taken from male Wistar rats immediately before and at several intervals after intravenous injection of BG or BG-d1. Blood serum was separated by centrifugation. Equal amounts of blood serum and HPLC-grade acetonitrile were mixed and centrifuged at 13,000 rpm (15,000×g) for 5 minutes. Samples were then analyzed for BG or BG-d1 content by High Performance Liquid Chromatography (HPLC). Samples were placed in an autosampler programmed for replicate injections of […] each onto a 4.6×250 mm LC18 HPLC column. The column was eluted with 45% aqueous methanol delivered at 1 ml/min. BG or BG-d1 were detected by using a spectrofluorometer set at excitation and emission wavelengths of 255 and 283 nm, respectively. The slit width used was 10 nm. Quantitation of the amount of BG or BG-d1 in serum samples was performed with an electronic integrator calibrated with standard solutions of BG or BG-d1 in the mobile phase (Pettersen et al., Anticancer Res., 6; 147-152, 1986).
Measurement of BG or BG-d1 metabolites in blood samples (Table 6)
HPLC of blood samples was performed as indicated above. Relative amounts of BG- or BG-d1 -metabolite were determined by peak height analysis. The peak height from the electronic integrator (in microvolts) of samples taken 30 minutes after iv injection of BG, or 60 minutes after iv injection of BG-d1 were normalized to 1. All other metabolite peaks were compared with these values.
At the same time as BG or BG-d1 metabolism was being determined, a separate metabolite peak appeared in HPLC chromatograms. The increase in BG- and BG-d1 -metabolite and subsequent clearance was measured.

Stability in vitro = assay type: in vitro ADME
[5] = Concentration of BG or BG-d1 in blood samples after iv injection (HPLC); assay type: in vivo, male Wistar rats
Protocol: Measurement of concentration of 4,6-O-benzylidene-D-glucose (BG) or 4,6-O-deuterobenzylidene-d1 -D-glucose (BG-d1) in blood samples (Table 5).
as §3
We have compared the metabolism in rats of BG as well as of deuterated BG (BG-d1). In Table 5 the serum concentration of BG or BG-d1 is shown at various time points after a single iv injection of each drug, respectively.

NHIK 3025 cells [6] = assay: Duration of cell cycle-time of synchronized cells; assay type: cell-based, human; details: 8 hr treatment
Excerpt: as §1, §2
(§4) For detection of the drug effects on cell-cycle kinetics, the same methods were used as described previously (Lindmo, T., and Pettersen, E. O., Cell Tissue Kinet., 12: 43-57, 1979), (Pettersen, E. O. et al, Eur. J. Cancer Clin. Oncol., 19: 507-514; 1983), (Ronning, O.W. et al., J. Cell. Physiol., 109: 411-419, 1981). Briefly, the selected mitotic cells were seeded into 8 tissue culture flasks (25 sq cm) 5000 cells per flask. The cells divided within 1 hr and attached as doublets to the bottom of the flasks. […] Analyses of durations of mitosis were performed from these observations (Table 4).
This is shown by the data in Table 3, where we have used synchronized cells treated over an 8 hr period starting 2 hr after mitotic selection, i.e. when the cells were in early Gl.

mucous membranes = details: pure form; cited from earlier work
NHIK 3025 cells [7] = details: previous studies; cited from earlier work
NHIK 3025 cells [8] = details: Pettersen et al. 1983, cited from earlier work; remark: listed apart in the source
NHIK 3025 cells [9] = assay: Duration of mitosis of synchronized cells; assay type: cell-based, human; details: 3.2 mM during mitosis
Excerpt: as §1, §2, §4
This effect is probably directly related to the aldehyde group (Pettersen et al. Cancer Res. 45: 2085-2091, 1985). If the deuterated aldehyde group induces different biological effects from the undeuterated one it is therefore good reason to expect this to be expressed as a difference in effect on cells in mitosis. In Table 4 results are shown on prolongation of mitosis of synchronized cells treated with benzaldehyde or deuterobenzaldehyde-d1 during mitosis. The numbers in the table represent the percentage of the cells having a duration of mitosis below 1 hr (which is normal for untreated cells) or above the number of hours indicated on top of each column.

NHIK 3025 cells [10] = details: previous studies (Pettersen et al. 1983), cited from earlier work
[11] = read-out: Cell survival of cells treated for 24 hr
[12] = read-out: Fraction of cells surviving 24 hr treatment

OC1O[C@@H]2COC(c3ccccc3)O[C@H]2[C@H](O)[C@H]1O (stereo partly drawn) [BG, 4,6-O-benzylidene-D-glucose]
viability at 6400 µM (NHIK 3025 cells [1]; [11]): 30 ± 5% | viability at 12800 µM (NHIK 3025 cells [1]; [11]): 0.78 ± 0.18% | Protein synthesis (NHIK 3025 cells [2]; asynchronous cells, 3 hr treatment, pulse 0-1 hr, during treatment, Table 8, control 5.7 ± 0.5): 2.9 ± 0.7 %/hr | Protein synthesis (NHIK 3025 cells [2]; asynchronous cells, 3 hr treatment, pulse 2-3 hr, during treatment, Table 8, control 5.7 ± 0.5): 2.9 ± 0.1 %/hr | Protein synthesis (NHIK 3025 cells [2]; synchronized cells, 22 hr treatment, pulse 21-22 hr, during treatment, Table 8, control 5.3 ± 0.2): 4.8 ± 0.5 %/hr | Protein synthesis (NHIK 3025 cells [2]; synchronized cells, 22 hr treatment, pulse 23-24 hr, after treatment, Table 8, control 5.3 ± 0.2): 5.5 ± 0.1 %/hr | Protein synthesis inhibition (in words) (NHIK 3025 cells [3]): only protein synthesis inhibition is known to appear during treatment with BG | Relative amount of metabolite ([4]; 30 minutes after iv injection, BG sample normalized to 1): 1.00 | Relative amount of metabolite ([4]; 45 minutes after iv injection, maximum peak = 1): 0.927 ± 0.008 | Period over which compound is stable in vitro (Stability in vitro): at least 24 hr | half-life in vivo (in words) ([5]; in vivo): relatively short half-life in vivo | Amount of unmetabolized drug in blood samples ([5]; rat, iv, 60 minutes, N.F. = Not Found): N.F. | concentration at 0 h ([5]; serum, rat, iv, 0 minutes (estimated), read-out: Amount of unmetabolized drug in blood samples): 345 µM | concentration at 2 min ([5]; serum, rat, iv, 2 minutes, read-out: Amount of unmetabolized drug in blood samples): 230 ± 16 µM | concentration at 5 min ([5]; serum, rat, iv, 5 minutes, read-out: Amount of unmetabolized drug in blood samples): 110 ± 10 µM | concentration at 10 min ([5]; serum, rat, iv, 10 minutes, read-out: Amount of unmetabolized drug in blood samples): 96 ± 15 µM | concentration at 0.25 h ([5]; serum, rat, iv, 15 minutes, read-out: Amount of unmetabolized drug in blood samples): 66 ± 18 µM | concentration at 20 min ([5]; serum, rat, iv, 20 minutes, read-out: Amount of unmetabolized drug in blood samples): 48 ± 11 µM | concentration at 25 min ([5]; serum, rat, iv, 25 minutes, read-out: Amount of unmetabolized drug in blood samples): 40 ± 5 µM | concentration at 0.5 h ([5]; serum, rat, iv, 30 minutes, read-out: Amount of unmetabolized drug in blood samples): 33 ± 8 µM | half-life ([5]; serum, rat, iv, read-out: half-life in vivo): ~5 min

O=Cc1ccccc1 [Benzaldehyde]
Prolongation (NHIK 3025 cells [6]; 2 mM, versus control 1): 7.9% | Duration of the part of the cell cycle starting 2 hr after selection (NHIK 3025 cells [6]; 2 mM, control 1 16.5): 17.8 | Prolongation (NHIK 3025 cells [6]; 2.5 mM, versus control 2): 63.7% | Duration of the part of the cell cycle starting 2 hr after selection (NHIK 3025 cells [6]; 2.5 mM, control 2 16.8): 27.5 | viability at 3200 µM (NHIK 3025 cells [1]; [12]): 64 ± 18% | viability at 12800 µM (NHIK 3025 cells [1]; [12]): 2.4 ± 0.8% | Protein synthesis (NHIK 3025 cells [2]; 4 hr treatment, pulse 0-1, during treatment, Table 2, control 6.8 ± 0.9): 3.7 ± 0.3 %/hr | Protein synthesis (NHIK 3025 cells [2]; 4 hr treatment, pulse 4-5, after treatment, Table 2, control 6.8 ± 0.9): 5.1 ± 0.3 %/hr | Protein synthesis (NHIK 3025 cells [2]; 4 hr treatment, pulse 5-6, after treatment, Table 2, control 6.8 ± 0.9): 6.7 ± 0.5 %/hr | Protein synthesis inhibition (in words) (NHIK 3025 cells [3]): inhibit protein sythesis in a reversible manner | Protein synthesis inhibition (in words) (NHIK 3025 cells [3]; listed as benzaldehyde): protein synthesis inhibition | Irritating effect on mucous membranes (mucous membranes): strongly irritating effect on mucous membranes | Inactivation of cells treated during mitosis (in words) (NHIK 3025 cells [7]): inactivated efficiently by benzaldehyde | Cell cycle progression (in words) (NHIK 3025 cells [8]): inhibits cell cycle progression | Cell cycle progression (in words) (NHIK 3025 cells [8]; listed as benzaldehyde): cell-cycle progression is reduced | Percentage of cells with duration of mitosis >4 h (NHIK 3025 cells [9]): 49% | Percentage of cells with duration of mitosis >5 h (NHIK 3025 cells [9]): 35% | Percentage of cells with duration of mitosis >6 h (NHIK 3025 cells [9]): 21% | Percentage of cells with duration of mitosis >3 h (NHIK 3025 cells [9]; control 2%): 70% | Percentage of cells with duration of mitosis >2 h (NHIK 3025 cells [9]; control 4%): 87% | Percentage of cells with duration of mitosis >1 h (NHIK 3025 cells [9]; control 17%): 95% | Percentage of cells with duration of mitosis <1 h (NHIK 3025 cells [9]; control 83%): 5% | Inhibition during mitosis (in words) (NHIK 3025 cells [10]): induces specific inhibition during mitosis | Inhibition during mitosis (in words) (NHIK 3025 cells [10]; listed as benzaldehyde): specific prolongation of mitosis
